Source: the NIST ThermoML archive (doi:10.1021/acs.jced.5b00192)
± gives the expanded uncertainty stated by the source.

Legend:
[1] = Molar enthalpy of transition or fusion; details: DSC
[2] = DTA

- Molar enthalpy of transition or fusion ([1]; Crystal 1): 4.79 ± 0.179 kcal/mol
- Molar enthalpy of transition or fusion ([1]; Crystal 2): 1.19 ± 0.0454 kcal/mol
- Normal melting temperature ([2]; Crystal 1): 195.38 ± 1.5 °C
- Triple point temperature ([2]; Crystal 2): 435.39 ± 0.86 K
Compound: O=C1c2cccc(O)c2C(=O)c2c(O)cccc21 [1,8-dihydroxyanthraquinone]
